The values below come from publication PMC8070745, “FEN1 Blockade for Platinum Chemo-Sensitization and Synthetic Lethality in Epithelial Ovarian Cancers” (Cancers, 2021).

The subject of test [1] is FEN1 nuclear level in A2780cis cells. Description: Nuclear extract western blot for FEN1, A2780cis. It counts as cell-based, human. The settings on record: 5 µM cisplatin, 24 h. As for the experimental part: (§1) Clonogenic assay: In the clonogenic assay (colony formation assays), 32 cells/cm2 were seeded in 6-well plates and left at 37°C in a 5% CO2 atmosphere. Cisplatin (5µM) and/or FEN1i (10µM) and/or Importazole (5 µM, Selleckem, S8446 ) were added at the indicated concentrations and the plates were left at 37 °C in a 5% CO 2 atmosphere for 14 days. Later, the plates were washed with PBS, fixed and stained with a crystal violet, acetic acid and methanol solution and colonies were counted.
(§2) Nuclear and cytoplasmic extract: Cells were harvest by trypsinization, washed with PBS and centrifuged at 1000×g for 5min. […] Protein level were then quantified prior to use in western blots.
(§3) BCA protein quantification: Protein quantification was done using the Pierce BCA kit assay by Thermo Fisher Scientific. […] The plate was incubated at 37°C during 30 min in the dark and the absorbance was measured by FLUOstar OPTIMA, UK/ Infinite® F50 (UK) microplate reader at 590 nm. […]
(§4) Western Blot Analysis: Cells were harvested and lysed in RIPA buffer (R0278, Sigma) with the addition of protease cocktail inhibitor (P8348, Sigma), phosphatase inhibitor cocktail 2 (P5726, Sigma) and phosphatase inhibitor cocktail 3 (P0044, Sigma) and stored at - 20°C. Protein was quantified using BCA Protein Assay kit (23225, Thermo Fisher). […]
Background: Immunoblotting shows a protein as a band on a membrane.

The subject of test [2] is A2780 cells. Description: Clonogenic assay, A2780. It counts as cell-based, human. As for the experimental part: Clonogenic assay: In the clonogenic assay (colony formation assays), 32 cells/cm2 were seeded in 6-well plates and left at 37°C in a 5% CO2 atmosphere. Cisplatin (5µM) and/or FEN1i (10µM) and/or Importazole (5 µM, Selleckem, S8446 ) were added at the indicated concentrations and the plates were left at 37 °C in a 5% CO 2 atmosphere for 14 days. Later, the plates were washed with PBS, fixed and stained with a crystal violet, acetic acid and methanol solution and colonies were counted. […]

For test [3], the system named is BRCA2_KD HeLa silenciX cells. The test is described as follows: Clonogenic assay, BRCA2_KD HeLa. It counts as cell-based. The settings on record: vs control HeLa cells. The method, then:
as §1, §2, §3, §4

For test [4], the system named is POLβ KO A2780cis cells. The test is described as follows: Cell cycle progression, POLβ KO A2780cis. The test is classed as cell-based, human. The settings on record: FEN1i-treated. As for the experimental part: (§5) with ice cold PBS and fixed in 70% ethanol for 1h at -20°C. After removal of the fixative solution by centrifugation, cells were stained with 2 µg/ml of phospho-Histone (γH2AX) Ser139 (16202A, Millipore, UK) to detect DSBs.
(§6) Cell cycle progression: Cells were treated with 20 µg/ml RNase A (12091021, Invitrogen) and then 10 µg/ml Propidium Iodide (P4170, Sigma Aldrich) was added to determine the cell cycle distribution. The samples were analysed on a Beckman-Coulter FC500 flow cytometer using a 488nm laser for excitation and emission data for PI collected using a 620nm bandpass filter (FL3) and a 525nm bandpass filter (FL1) for FITC-anti-phospho-Histone H2A.X. […]
(§7) Graphical representation and statistical analysis was performed in GraphPad Prism 7 (GraphPad, La Jolla, USA).
(§8) 3D Spheroid assays: A2780_control and A2780 FEN1_ KO as well as A2780cis_control and A2780cis FEN1_ KO cells were seeded at 4500 cells/cm2 density in ultra-low attachment 6-well plates (174932, Thermo Fisher Scientific) and cultured in 3D Tumorsphere Medium (C28070, PromoCell, UK) at 37°C in a 5% CO2 atmosphere. Cells were keep in culture for 7-10 days, toping up with fresh medium every two days until spheroids structures were formed.

For test [5], the system named is PEO1 cells. Description: Cell cycle progression, PEO1. The test is classed as cell-based, human. The following applies: FEN1i monotherapy. As for the experimental part:
as §5, §6, §7, §8

Test [6] relates to PEO4 cells. Description: Cell cycle progression, PEO4. The following applies: FEN1i plus cisplatin. It counts as cell-based, human. As for the experimental part: as §5, §6, §7, §8

For `N.N.[Cl][Pt][Cl]` [cisplatin], in test [1], the “nuclear level of FEN1 after cisplatin” value is on record as “significantly increased”. In test [2], the cisplatin sensitivity entry was “cisplatin-sensitive”.

On to `Cc1csc2c1c(=O)n(O)c(=O)n2-c1ccccc1` [PTPD, 3-hydroxy-5-methyl-1-phenylthieno [2,3 d]pyrimidine-2,4(1H,3H)-dione], for which the “sensitivity to FEN1 inhibitor” value in test [3] is “sensitive to FEN1i compared to control HeLa cells”. The cell cycle effect result in test [4] is “G2/M cell cycle arrest”; in test [5], “S-phase and G2/M-phase cell cycle arrest”; in test [6], “G2/M cell cycle arrest”.
